# Experimental data as given in patent US9067898B1, “Isothiazole derivatives as GPR120 agonists for the treatment of type II diabetes” (Janssen Pharmaceutica NV, priority 2014, dated 2015).
# Tests used:
# Human GPR120 short form = biological target: T1, Human GPR120 short form (Homo sapiens, UniProt Q5NUL3); assay: Human GPR120 calcium flux assay (FLIPR), Procedure Calcium A; format: cell-based; details: HEK-293 cells expressing human GPR120 short form, 2500 cells/well; read-out: GPR120 Ca2+ Assay A EC50
# T1 construct: expressed in transfected cells
# T1 sequence (Q5NUL3 1-361): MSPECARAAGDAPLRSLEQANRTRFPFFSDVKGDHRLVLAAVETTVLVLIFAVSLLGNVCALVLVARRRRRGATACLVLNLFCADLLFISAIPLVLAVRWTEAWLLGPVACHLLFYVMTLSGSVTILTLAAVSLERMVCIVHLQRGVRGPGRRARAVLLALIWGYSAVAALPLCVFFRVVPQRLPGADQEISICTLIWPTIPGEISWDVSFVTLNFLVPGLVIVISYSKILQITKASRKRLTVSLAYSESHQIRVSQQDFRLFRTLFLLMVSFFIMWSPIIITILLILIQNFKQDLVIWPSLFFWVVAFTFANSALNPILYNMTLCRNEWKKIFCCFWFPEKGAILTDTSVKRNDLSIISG
# Procedure, shortened: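 HEK293 cells stably expressing the short isoform (NM_001195755.1), 2500/well, starved 1 h, then loaded with Fluo-4 NW plus probenecid (30 min 37 °C, 15 min RT). Compound solutions 0.012–100 μM, 0.2% DMSO final; FLIPR read 300 s after addition. EC50 from Fmax−Fmin fitted to variable-slope sigmoid (Hill <2).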
# [1] = biological target: T2, long form of human GPR120 (Homo sapiens, UniProt Q5NUL3); assay: Human GPR120 DiscoveRx PathHunter Beta-Arrestin assay, Procedure β-arrestin A; format: cell-based; details: PathHunter CHO-K1 GPR120 β-Arrestin cell line, 3000 cells per well, read-out: hGPR120 β-arrestin A EC50
# T2 construct: host or cells: PathHunter CHO-K1 GPR120 β-Arrestin Cell Line
# Excerpt: The binding of an agonist (medium/long chain fatty acids or small molecule agonists) to the G-protein-coupled receptor GPR120 activates phospholipase C, leading to release of intracellular Ca^+2 through the generation of inositol 1,4,5-trisphosphate (InsP3 or IP3). GPR120 activation can also trigger intracellular signaling via recruitment of Beta-Arrestin. In the present method, agonist-induced activation of the human GPR120 receptor is monitored through the use of PathHunter CHO-K1 GPR120 Beta-Arrestin Cell Line engineered by DiscoveRx, as detailed below. The cell lines are designed to co-express both the ProLink/Enzyme Donor (PK)-tagged GPCR and the Enzyme […] (EA)-tagged Beta-Arrestin fusion proteins. Upon GPR120 receptor stimulation/activation, the EA-tagged Beta-Arrestin portion is translocated to the tagged receptor, where the two enzyme fragments are brought within close proximity. Under these conditions, these fragments can interact and form an active Beta-gal enzyme complex through Enzyme Fragment Complementation (EFC). This active Beta-gal complex can enzymatically hydrolyse the substrate to produce a detectable light signal; therefore, activation as a function of agonist concentration can be expressed as an EC50 value to determine relative compound activities. This in vitro assay therefore serves to assess compound agonist activity of the GPR120. Procedure β-Arrestin A: In Procedure β-arrestin A, the cell used were PathHunter CHO-K1 GPR120 β-Arrestin Cell Line, expressing the long form of human GPR120 (Genbank accession number NM 181745), with 3000 cells per well. Procedure β-Arrestin B: In Procedure 3-arrestin B the cells used were PathHunter CHO-K1 GPR120S β-Arrestin Cell Line, expressing the short form of the GPR120 receptor (Accession #NM_181745), with 5000 cells/well. Assay Procedure:
# The selected CHO-K1 GPR120 β-Arrestin cells were cultured in Ham's F12 media supplemented with 10% fetal bovine serum (FBS), 1% Glutamine, lx p/s, 800 μg/mL G418 and 300 μg/mL Hygromycin B (for selection). Cell stocks were maintained and grown in a sub-confluent state using standard cell culture procedures. The day before the experiment, the cells were harvested with non-enzymatic cell dissociation buffer and re-suspended in complete growth media at the desired concentration. A Corning 384-plate was then seeded with the proper number of cells in a volume of 25 μL, per well. The seeded plates were incubated overnight at 37° C.
# On the day of the experiment, the Assay Buffer containing (a) HBSS with Ca^++ and Mg^++, (b) 20 mM HEPES, and (c) 0.1% BSA stabilizer (pH 7.4) was prepared. The growth medium was gently removed from the cell plates and 20 μL of Assay Buffer added to each well. The plate was then incubated at 37° C. for 60 min. Test compounds were serially diluted in Assay Buffer to desired concentrations (more particularly to one or more of the following μM concentrations: 25, 12.5, 6.25, 3.125, 1.5625, 0.78125, 0.390625, 0.1953125, 0.09765625, 0.048828125, 0.024414063, 0.012207031). Five μL of compound dilution was then added to each well and the plate incubated at 37° C. for 90 min. The detection reagents were prepared according to the manufacture's instruction. Twelve μL of the detection reagents were added to each well and the plate incubated at room temperature for 60 min.
# The plates were read on an EnVision instrument, using Protocol name: Luminescence, Plate type: 384 Costar, Measurement height: 3 mm, Measurement time: 1 s, Aperture: 384 Plate aperture. The % activity relative to the positive control was calculated using the following equation:
# The % Activity values were plotted versus the concentration of test compound and fitted to a sigmoidal dose-response curve with a Hill slope=1 (fixed value) using nonlinear regression with GraphPad Prism 5.0 to calculate the EC50 values. […]
# T2 sequence (Q5NUL3 1-377 isoform Q5NUL3-1): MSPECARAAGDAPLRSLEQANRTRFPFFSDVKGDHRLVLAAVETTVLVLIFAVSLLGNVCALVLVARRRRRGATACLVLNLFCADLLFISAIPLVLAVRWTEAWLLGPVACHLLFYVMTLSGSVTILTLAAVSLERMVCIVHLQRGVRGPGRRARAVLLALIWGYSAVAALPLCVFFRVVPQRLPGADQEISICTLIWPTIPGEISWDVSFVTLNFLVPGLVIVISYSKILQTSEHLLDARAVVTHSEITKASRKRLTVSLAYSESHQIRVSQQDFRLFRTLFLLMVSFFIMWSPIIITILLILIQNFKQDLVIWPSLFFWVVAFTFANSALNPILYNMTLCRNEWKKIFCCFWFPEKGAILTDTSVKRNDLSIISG
# T2 sequence (P32121 whole entry partner): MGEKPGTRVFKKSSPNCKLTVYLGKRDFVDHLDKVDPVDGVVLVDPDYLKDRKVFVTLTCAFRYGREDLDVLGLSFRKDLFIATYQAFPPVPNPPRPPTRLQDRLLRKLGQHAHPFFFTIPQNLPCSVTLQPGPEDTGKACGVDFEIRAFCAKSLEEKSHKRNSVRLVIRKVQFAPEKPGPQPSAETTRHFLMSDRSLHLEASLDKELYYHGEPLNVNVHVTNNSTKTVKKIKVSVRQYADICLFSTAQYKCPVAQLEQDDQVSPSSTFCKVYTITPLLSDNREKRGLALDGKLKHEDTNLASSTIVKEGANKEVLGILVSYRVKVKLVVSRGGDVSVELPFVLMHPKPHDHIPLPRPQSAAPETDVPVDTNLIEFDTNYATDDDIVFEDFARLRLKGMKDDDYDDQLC
SMILES,EC50 (Human GPR120 short form) [nM],EC50 [1] [nM]
"CCc1ccc(-c2nsc(C(F)(F)F)c2COc2c(F)cc(CCC(=O)O)cc2F)cc1 [Cpd 70, 3-(4-[[3-(4-ethylphenyl)-5-(trifluoromethyl)-1,2-thiazol-4-yl]methoxy]-3,5-difluorophenyl)propanoic acid]",34,98
"CCc1ccc(-c2nsc(C(F)(F)F)c2COc2c(F)cc(CC(C)C(=O)O)cc2F)cc1 (centres unmarked) [Cpd 80, 3-(4-[[3-(4-ethylphenyl)-5-(trifluoromethyl)-1,2-thiazol-4-yl]methoxy]-3,5-difluorophenyl)-2-methylpropanoic acid]",51,246
"Cc1ccc(-c2snc(C)c2COc2c(F)cc(CCC(=O)O)cc2F)c(F)c1 [Cpd 84, 3-(3,5-difluoro-4-[[5-(2-fluoro-4-methylphenyl)-3-methyl-1,2-thiazol-4-yl]methoxy]phenyl) propanoic acid]",56,119
"COc1ccc(-c2nsc(C(F)(F)F)c2COc2ccc(CCC(=O)O)c(C)c2C)cc1 [Cpd 86, 3-(4-[[3-(4-methoxyphenyl)-5-(trifluoromethyl)-1,2-thiazol-4-yl]methoxy]-2,3-dimethylphenyl) propanoic acid]",57,85
"O=C(O)CCc1cc(F)c(OCc2c(-c3ccc4c(c3)OCO4)nsc2C(F)(F)F)c(F)c1 [Cpd 87, 3-(4-[[3-(2H-1,3-benzodioxol-5-yl)-5-(trifluoromethyl)-1,2-thiazol-4-yl]methoxy]-3,5-difluorophenyl)propanoic acid]",62,88
"Cc1c(CCC(=O)O)ccc(OCc2c(Cl)nsc2-c2ccc(Cl)cc2)c1C [Cpd 88, 3-(4-[[3-chloro-5-(4-chlorophenyl)-1,2-thiazol-4-yl]methoxy]-2,3-dimethylphenyl)propanoic acid]",67,81
"O=C(O)CCc1cc(F)c(OCc2c(-c3c(F)cc(Cl)cc3F)nsc2C(F)(F)F)c(F)c1 [Cpd 96, 3-(4-((3-(4-chloro-2,6-difluorophenyl)-5-(trifluoromethyl)isothiazol-4-yl)methoxy)-3,5-difluorophenyl)propanoic acid]",73,287
"COc1ccc(-c2snc(Cl)c2COc2c(F)cc(CCC(=O)O)cc2F)cc1 [Cpd 97, 3-(4-[[3-chloro-5-(4-methoxyphenyl)-1,2-thiazol-4-yl]methoxy]-3,5-difluorophenyl)propanoic acid]",73,338

# The remaining molecules from weak to strong by EC50 (Human GPR120 short form), led by results:
EC50 (Human GPR120 short form) [nM],EC50 [1] [nM],SMILES
56,54,"CCc1ccc(-c2snc(Cl)c2COc2ccc(CCCO)c(F)c2F)cc1 [Cpd 83, 3-(4-((3-chloro-5-(4-ethylphenyl)isothiazol-4-yl)methoxy)-2,3-difluorophenyl)propan-1-ol]"
54,172,"Cc1c(CCC(=O)O)ccc(OCc2c(-c3ccc(Cl)c(F)c3)nsc2C(F)(F)F)c1C [Cpd 82, 3-(4-((3-(4-chloro-3-fluorophenyl)-5-(trifluoromethyl)isothiazol-4-yl)methoxy)-2,3-dimethylphenyl)propanoic acid]"
51,94,"COc1ccc(-c2nsc(C(F)(F)F)c2COc2c(F)cc(CCCO)cc2F)cn1 [Cpd 81, 3-(3,5-difluoro-4-[[3-(6-methoxypyridin-3-yl)-5-(trifluoromethyl)-1,2-thiazol-4-yl]methoxy]phenyl)propan-1-ol]"
39,103,"O=C(O)CCc1ccc(OCc2c(Cl)nsc2-c2ccc(Cl)cc2)c(F)c1F [Cpd 72, 3-(4-[[3-chloro-5-(4-chlorophenyl)-1,2-thiazol-4-yl]methoxy]-2,3-difluorophenyl)propanoic acid]"
31,83,"O=C(O)CCc1ccc(OCc2c(-c3ccc(Cl)cc3)nsc2C(F)(F)F)c(Br)c1 [Cpd 69, 3-(3-bromo-4-[[3-(4-chlorophenyl)-5-(trifluoromethyl)-1,2-thiazol-4-yl]methoxy]phenyl)propanoic acid]"
